Consider one molecule from article PMC4026327 (Nature Communications, 2014).

Common to all, as to settings: read-out: Melibiose displacement of D ^ 2 G (IC 50); 10 μM D2G, 20 mM NaCl, 100 mM KPi pH 7.5
Experiment [1] concerns the target MelBSt (WT) (Salmonella enterica, UniProt P30878, L5M/R363C).
Experiment [2] addresses MelBSt (WT) (Salmonella enterica, UniProt P30878, L5M/R295C).
In experiment [3] the target is MelBSt (WT) (Salmonella enterica, UniProt P30878, L5M).
Experiment [4] deals with MelBSt (WT) (Salmonella enterica, UniProt P30878, L5M/R141C).

For `OC[C@H]1O[C@H](OC[C@H]2OC(O)[C@H](O)[C@@H](O)[C@@H]2O)[C@H](O)[C@@H](O)[C@H]1O` (stereo partly shown) [melibiose], the IC50 at MelBSt (WT) [1] stood at 2.83 ± 0.57 mM; on MelBSt (WT) [2] it was 4.04 ± 0.42 mM; at MelBSt (WT) [3], 2.65 ± 0.8 mM; on MelBSt (WT) [4], 5.93 ± 1.61 mM.
